In brackets after ≈: the same amount, converted by molar mass. Residues, ends and D or L forms follow the SMILES beside them.
T1: LptAm, truncated functional deletion variant of the periplasmic LPS transport protein LptA of E. coli (E. coli, UniProt P0ADV1 28-159)
T1 construct: LptA of E. coli, residues 28-159 (LptAm); no removal of the His tag is told; also called His-tagged LptAm; source: E. coli BL21, purified (Ni-NTA, size-exclusion chromatography)
T1 sequence (looked up): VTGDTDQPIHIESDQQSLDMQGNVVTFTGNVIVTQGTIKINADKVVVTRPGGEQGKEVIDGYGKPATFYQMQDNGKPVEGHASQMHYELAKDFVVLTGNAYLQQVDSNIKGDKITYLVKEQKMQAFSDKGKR


How the values were obtained:
[1] = system: Enterococcus faecalis ATCC 29212 (EF); format: cell-based; settings: ATCC 29212, 18 h
Protocol: (§1) Antibacterial activities of the VF16QK and VF16QK^Ser peptides (GL Biochem, Shanghai, China) were determined using the broth dilution method. Bacterial strains of Escherichia coli ATCC 25922 (EC); Salmonella enterica ATCC 14028 (SE); Klebsiella pneumoniae ATCC 13883 (KP); Acinetobacter baumannii ATCC BAA-1798 (AB) Streptococcus pyogenes ATCC 19615 (SP) and Enterococcus faecalis ATCC 29212 (EF) were used for this study.
(§2) Typically, overnight cultures of bacterial cells were grown to mid-log phase and diluted in 2X Mueller Hinton (MH) broth (Millipore-Sigma^TM, Saint Louis, MO, USA) to a final OD600 of 0.002. In a 96-well plate, 100 μL of the diluted bacterial solutions and 100 μL of the VF16QK and VF16QK^Ser peptides in concentrations ranging from 0.5 μM to 8 μM were incubated at 37 °C for 18 h.

[2] = system: Escherichia coli ATCC 25922 (EC); format: cell-based; settings: ATCC 25922, 18 h
Protocol: as §1, §2

[3] = system: ATCC strains of E. coli, K. pneumoniae, S. enterica, S. pyogenes and E. faecalis; format: cell-based; settings: 18 h
Protocol: as §1, §2

[4] = system: Klebsiella pneumoniae ATCC 13883 (KP); format: cell-based; settings: ATCC 13883, 18 h
Protocol: as §1, §2

[5] = system: Streptococcus pyogenes ATCC 19615 (SP); format: cell-based; settings: ATCC 19615, 18 h
Protocol: as §1, §2

[6] = biological target: T2, LptAm, the periplasmic LPS transport protein of E. coli (Escherichia coli, UniProt P0ADV1); assay: Isothermal titration calorimetry (ITC) with LptAm; format: binding; settings: in words
T2 construct: His-tagged LptAm (residues 28–159) of E. coli; His-tag; made in house; host or cells: E. coli BL21
Protocol: Figure 2 Isothermal titration calorimetry (ITC) of binding interactions of VF16QK with (A) LptAm, the periplasmic LPS transport protein of E. coli, and (B) the LPS-outer membrane. LptAm-peptide ITC studies were carried out in 50 mM of sodium phosphate buffer and 150 mM of NaCl at pH 7.0 and 25 °C. LptAm proteins in sample cells were titrated with 2 μL aliquots of peptides and the heat exchange was measured. For LPS–peptide interactions, LPS in sample cells were titrated with 2 μL aliquots of peptides in 10 mM of sodium phosphate buffer, pH 7.0, 37 °C.
The binding interactions of the thanatin peptides VF16QK and VF16QK^Ser with the LPS-outer membrane and LptAm were determined using ITC. LPS and peptide samples were prepared in 10 mM of sodium phosphate buffer, pH 7.0. Typically, twenty injections, or 2.0 μL of peptides (1 mM in syringe), were titrated into the sample cell containing LPS ([…]) at 37 °C with a stirring speed of 750 rpm. […] ITC data were analyzed following single site binding in Microcal origin 5.0 software to determine the association constant (Ka) and change of enthalpy (ΔH). The dissociation constant (Kd), change of free energy (ΔG) and change of entropy (TΔS) were calculated as: Kd = 1/Ka, ΔG = ΔH − TΔS, respectively. […]

[7] = system: LPS-outer membrane of E. coli cells; assay: Outer membrane permeabilization assay (NPN fluorescence); format: cell-based; settings: E. coli cells OD600 ~0.5, 10 mM sodium phosphate, peptide 1 to 16 µM, excitation 350 nm, emission 390–450 nm; in words
Protocol: (§3) Figure 1 (A) Fluorescence emission spectra of NPN as a function of concentrations of the VF16QK and VF16QK^ser peptides in E. coli cell solutions. 10 μM of fluorescence probes were prepared in 10 mM of sodium phosphate buffer with a fixed bacterial cell density of 0.5. Fluorescence spectra were recorded with an excitation wavelength of 350 nm and emission of 390–450 nm. (B) Plot showing z potential changes of E. coli cells as a function of concentrations, 2 to 32 μM, of the VF16QK and VF16QK peptides.
VF16QK and VF16QK^Ser were assessed for their ability to permeabilize the LPS-outer membrane of E. coli cells by use of the fluorescence probe 1-N-phenylnapthylamine (NPN). Bacterial cells were prepared from a mid-log culture in 10 mM of sodium phosphate with an adjusted OD600 ~ 0.5. A basal fluorescence of […] NPN in bacterial suspension, in absence of peptide, was measured followed by sequential additions of peptides from 1 to 16 µM. Fluorescence experiments were conducted in a Cary Eclipse spectrophotometer (Varian, Palo Alto, CA, USA) using a 0.1 cm quartz cuvette. An excitation wavelength of 350 nm and emission was recorded from 390–450 nm.

E. coli cells = assay: Zeta potential measurements (surface charge neutralization); format: cell-based; settings: 10 mM sodium phosphate pH 7, peptide up to 32 μM, three replicates, in words
Protocol: as §3
Zeta potential measurements were performed in a Zeta Sizer Nano ZS (Malvern Instruments, Worcestershire, UK) instrument equipped with a 633 nm He laser. Mid-log phase E. coli cultures were centrifuged at 5000 rpm for 10 min and prepared in 10 mM of sodium phosphate buffer, pH 7. Z potential values of bacterial cell suspension were obtained from 1 to 32 μM of the peptides in zeta cells with gold electrodes. For individual measurement, 100 runs were carried out and three replicates were performed.

[8] = biological target: T1, LptAm, truncated functional deletion …; assay: ITC; peptide (250 uM in syringe, 20 injections of 2 uL) titrated into LptAm in the sample cell (25 mM [sic]); 50 mM sodium phosphate, 150 mM NaCl, pH 7.0, 25 °C; single site binding fit; settings: both partners purified

Molecule | MIC, EF [1] | MIC, EC [2] | MIC values over Gram-negative and Gram-positive bacterial strains [3] | MIC, KP [4] | MIC, SP [5] | nature of binding to LptAm (heat of exchange) [6] | NPN fluorescence emission (LPS-outer membrane permeabilization) [7] | neutralization of surface charge (zeta potential) (E. coli cells) | Kd [8] | dH [8]
CC[C@H](C)[C@H](NC(=O)[C@@H](NC(=O)[C@@H]1CCCN1C(=O)[C@@H](N)C(C)C)[C@@H](C)CC)C(=O)N[C@@H](Cc1ccc(O)cc1)C(=O)N[C@H]1CSSC[C@@H](C(=O)N[C@@H](CCCCN)C(=O)N[C@@H](CCCNC(=N)N)C(=O)N[C@@H](Cc2ccccc2)C(N)=O)NC(=O)[C@H](CCCCN)NC(=O)[C@@H](CCCCN)NC(=O)[C@H]([C@@H](C)O)NC(=O)[C@H](CCCNC(=N)N)NC(=O)[C@H](CCCNC(=N)N)NC(=O)[C@H](CC(N)=O)NC1=O [VF16QK] (HELM PEPTIDE1{V.P.I.I.Y.C.N.R.R.T.[dK].K.C.K.R.F.[am]}$PEPTIDE1,PEPTIDE1,6:R3-13:R3$$$V2.0) | 1 µM (≈ 2.02 µg/mL) | 1 to 4 µM | 1 to 4 µM | 1 to 2 µM | 1 µM (≈ 2.02 µg/mL) | – | – | – | – | –
CC[C@H](C)[C@H](NC(=O)[C@@H](NC(=O)[C@@H]1CCCN1C(=O)[C@@H](N)C(C)C)[C@@H](C)CC)C(=O)N[C@@H](Cc1ccc(O)cc1)C(=O)N[C@@H](CO)C(=O)N[C@@H](CC(N)=O)C(=O)N[C@@H](CCCNC(=N)N)C(=O)N[C@@H](CCCNC(=N)N)C(=O)N[C@H](C(=O)N[C@H](CCCCN)C(=O)N[C@@H](CCCCN)C(=O)N[C@@H](CO)C(=O)N[C@@H](CCCCN)C(=O)N[C@@H](CCCNC(=N)N)C(=O)N[C@@H](Cc1ccccc1)C(N)=O)[C@@H](C)O [VF16QK^Ser] (HELM PEPTIDE1{V.P.I.I.Y.S.N.R.R.T.[dK].K.S.K.R.F.[am]}$$$$V2.0; N-terminus and C-terminus assumed) | – | – | > 16 µM | – | – | endothermic binding | significantly diminished LPS-outer membrane permeabilization | less effective | – | –
VPIIYCNRRTKKCKRF (HELM PEPTIDE1{V.P.I.I.Y.C.N.R.R.T.[dK].K.C.K.R.F.[am]}$PEPTIDE1,PEPTIDE1,6:R3-13:R3$$$V2.0; N-terminus assumed; SMILES CC[C@H](C)[C@H](NC(=O)[C@@H](NC(=O)[C@@H]1CCCN1C(=O)[C@@H](N)C(C)C)[C@@H](C)CC)C(=O)N[C@@H](Cc1ccc(O)cc1)C(=O)N[C@H]1CSSC[C@@H](C(=O)N[C@@H](CCCCN)C(=O)N[C@@H](CCCNC(=N)N)C(=O)N[C@@H](Cc2ccccc2)C(N)=O)NC(=O)[C@H](CCCCN)NC(=O)[C@@H](CCCCN)NC(=O)[C@H]([C@@H](C)O)NC(=O)[C@H](CCCNC(=N)N)NC(=O)[C@H](CCCNC(=N)N)NC(=O)[C@H](CC(N)=O)NC1=O, Analog of thanatin of Podisus maculiventris (21 residues) without its five N-terminal residues; also called VK16QK; source: synthetic peptide; bought: GL Biochem, Shanghai) [VF16QK, disulfide-bonded 16-residue thanatin analog peptide] | – | – | – | – | – | – | – | – | 400 nM | -10.2 kcal/mol

From paper PMC11720011, “Single Disulfide Bond in Host Defense Thanatin Analog Peptides: Antimicrobial Activity, Atomic-Resolution Structures and Target Interactions” (International Journal of Molecular Sciences, 2024)
